pIC50: −log10 of the molar value. Where only a bound is given, the exact number is not on record here.

For test [1], the target named is T1, Recombinant STAT3 protein (STAT3(G127-I722)) (Homo sapiens, UniProt P40763).
T1 construct: STAT3(G127-I722)
Nature of the test: STAT3 Fluorescence Polarization (FP) Assay. The class given is binding. The settings on record: STAT3(G127-I722) 25 nM, probe 5-FAM-GpYLPQTV-NH2 2 nM, 45-minute incubation. Summed up: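 Serially diluted compounds (1% DMSO) were mixed with 2 nM fluorescent phosphotyrosine peptide and 25 nM STAT3 construct G127-I722, pH 7.4, incubated 45 min at room temperature. IC50 values from fitted polarization curves are reported as categories A (≤100 nM), B, C, D (>10 μM).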
A general note: Fluorescence polarisation rises when a labelled molecule tumbles more slowly, as on binding a larger partner.

The target of test [2] is T2, Recombinant STAT6 protein (STAT6(W123-T658)) (Homo sapiens, UniProt P42226).
T2 construct: STAT6(W123-T658)
T2 sequence (P42226 123-658): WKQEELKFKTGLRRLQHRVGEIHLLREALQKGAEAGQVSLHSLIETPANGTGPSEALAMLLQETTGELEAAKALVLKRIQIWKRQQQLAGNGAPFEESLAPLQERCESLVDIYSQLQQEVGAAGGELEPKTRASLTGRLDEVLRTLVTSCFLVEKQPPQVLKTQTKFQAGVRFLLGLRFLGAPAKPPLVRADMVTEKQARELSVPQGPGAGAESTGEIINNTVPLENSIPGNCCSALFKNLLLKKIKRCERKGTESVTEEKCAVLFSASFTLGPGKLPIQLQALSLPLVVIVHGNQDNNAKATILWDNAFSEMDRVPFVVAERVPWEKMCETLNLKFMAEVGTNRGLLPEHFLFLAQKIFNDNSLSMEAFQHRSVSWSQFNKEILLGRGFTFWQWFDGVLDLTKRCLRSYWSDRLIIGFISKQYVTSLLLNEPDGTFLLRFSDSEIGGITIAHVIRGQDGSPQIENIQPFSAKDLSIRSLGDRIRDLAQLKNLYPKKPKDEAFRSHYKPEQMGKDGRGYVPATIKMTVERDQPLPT
Briefly: STAT6 Fluorescence Polarization (FP) Assay. The format is binding. The settings on record: STAT6(W123-T658) 250 nM, probe 5-FAM-ApYKPFQDLI-NH2 2 nM, 45-minute incubation. Summed up:
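Competitive displacement of a fluorescent phosphotyrosine peptide (2 nM) from recombinant STAT6 W123-T658 (250 nM), 45 min at room temperature in 10 mM HEPES pH 7.4, 50 mM NaCl, 2 mM DTT. mP fitted against log compound for IC50, grouped A (≤300 nM) to D (>30 μM).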

T1 sequence (P40763 127-722, species assumed): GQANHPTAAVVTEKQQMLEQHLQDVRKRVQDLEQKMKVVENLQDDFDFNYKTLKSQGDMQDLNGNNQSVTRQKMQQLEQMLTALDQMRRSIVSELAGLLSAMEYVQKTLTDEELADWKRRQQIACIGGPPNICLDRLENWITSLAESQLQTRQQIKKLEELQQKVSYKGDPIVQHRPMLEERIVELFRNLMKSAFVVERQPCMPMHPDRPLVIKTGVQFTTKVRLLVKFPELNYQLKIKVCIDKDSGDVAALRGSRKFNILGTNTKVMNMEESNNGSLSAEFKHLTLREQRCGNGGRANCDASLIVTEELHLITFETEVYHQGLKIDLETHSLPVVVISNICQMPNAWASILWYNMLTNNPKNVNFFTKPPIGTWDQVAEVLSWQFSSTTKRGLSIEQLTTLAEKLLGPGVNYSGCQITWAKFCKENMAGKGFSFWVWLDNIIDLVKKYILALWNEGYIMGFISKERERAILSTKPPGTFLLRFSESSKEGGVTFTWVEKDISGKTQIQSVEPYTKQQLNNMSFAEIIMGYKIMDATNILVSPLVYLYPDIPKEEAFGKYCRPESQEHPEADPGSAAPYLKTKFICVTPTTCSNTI

Turning to `O=C(N[C@H]1C[C@@H]2C[C@@H]2C[C@H]2CC[C@@H](C(=O)N3CC(Cc4cccc(F)c4)C3)N2C1=O)c1cc2cc(CP(=O)(O)O)ccc2s1` [Example 349, ((2-(((3S,6S,7aS,8aR,9aR)-3-(3-(3-fluorobenzyl)azetidine-1-carbonyl)-5-oxodecahydro-1H-cyclopropa[d]pyrrolo[1,2-a]azocin-6-yl)carbamoyl)benzo[b]thiophen-5-yl)methyl)phosphonic acid], the pIC50 is 6.00 to 7.00 in test [1] and 4.52 to 5.52 in test [2].

In the case of `O=C(N[C@H]1C[C@@H]2C[C@@H]2C[C@H]2CC[C@@H](C(=O)N3CC(Oc4cccnc4)C3)N2C1=O)c1cc2cc(CP(=O)(O)O)ccc2s1` [Example 350, ((2-(((3S,6S,7aS,8aR,9aR)-5-oxo-3-(3-(pyridin-3-yloxy)azetidine-1-carbonyl)decahydro-1H-cyclopropa[d]pyrrolo[1,2-a]azocin-6-yl)carbamoyl)benzo[b]thiophen-5-yl)methyl)phosphonic acid], the negative-log IC50 (pIC50) in test [1] was 6.00 to 7.00; in test [2], 4.52 to 5.52.

In the case of `O=C(N[C@H]1C[C@@H]2C[C@@H]2C[C@H]2CC[C@@H](C(=O)N3CC(Oc4ccccn4)C3)N2C1=O)c1cc2cc(CP(=O)(O)O)ccc2s1` [Example 351, ((2-(((3S,6S,7aS,8aR,9aR)-5-oxo-3-(3-(pyridin-2-yloxy)azetidine-1-carbonyl)decahydro-1H-cyclopropa[d]pyrrolo[1,2-a]azocin-6-yl)carbamoyl)benzo[b]thiophen-5-yl)methyl)phosphonic acid], the pIC50 in test [1] is 6.00 to 7.00; in test [2], 4.52 to 5.52.

For the molecule `O=C(N[C@H]1C[C@@H]2C[C@@H]2C[C@H]2CC[C@@H](C(=O)N3CC(Cc4ccncc4)C3)N2C1=O)c1cc2cc(CP(=O)(O)O)ccc2s1` [Example 352, ((2-(((3S,6S,7aS,8aR,9aR)-5-oxo-3-(3-(pyridin-4-ylmethyl)azetidine-1-carbonyl)decahydro-1H-cyclopropa[d]pyrrolo[1,2-a]azocin-6-yl)carbamoyl)benzo[b]thiophen-5-yl)methyl)phosphonic acid], the pIC50 in test [1] was 6.00 to 7.00; in test [2], less than 4.52.

Consider `CC(=O)N1CC(NC(=O)[C@@H]2CC[C@@H]3C[C@H]4C[C@H]4C[C@H](NC(=O)c4cc5cc(C(F)P(=O)(O)O)ccc5s4)C(=O)N32)C(F)(F)C1` (stereo partly drawn) [Example 358, ((2-(((3S,6S,7aS,8aR,9aR)-3-((1-acetyl-4,4-difluoropyrrolidin-3-yl)carbamoyl)-5-oxodecahydro-1H-cyclopropa[d]pyrrolo[1,2-a]azocin-6-yl)carbamoyl)benzo[b]thiophen-5-yl)fluoromethyl)phosphonic acid], for which the pIC50 in test [1] was 6.00 to 7.00; in test [2] it was 4.52 to 5.52.

For the molecule `O=C(N[C@H]1C[C@@H]2C[C@@H]2C[C@H]2CC[C@@H](C(=O)N3CC(Cc4cncnc4)C3)N2C1=O)c1cc2cc(CP(=O)(O)O)ccc2s1` [Example 364, ((2-(((3S,6S,7aS,8aR,9aR)-5-oxo-3-(3-(pyrimidin-5-ylmethyl)azetidine-1-carbonyl)decahydro-1H-cyclopropa[d]pyrrolo[1,2-a]azocin-6-yl)carbamoyl)benzo[b]thiophen-5-yl)methyl)phosphonic acid], the pIC50 in test [1] is 5.00 to 6.00; in test [2], less than 4.52.

For `O=C(N[C@H]1C[C@@H]2C[C@@H]2C[C@H]2CC[C@@H](C(=O)N3CC(C(O)c4ccccc4)C3)N2C1=O)c1cc2cc(CP(=O)(O)O)ccc2s1` (stereo partly drawn) [Example 365, ((2-(((3S,6S,7aS,8aR,9aR)-3-(3-(hydroxy(phenyl)methyl)azetidine-1-carbonyl)-5-oxodecahydro-1H-cyclopropa[d]pyrrolo[1,2-a]azocin-6-yl)carbamoyl)benzo[b]thiophen-5-yl)methyl)phosphonic acid], the figures for the pIC50 in test [1] and in test [2] were 5.00 to 6.00 and 4.52 to 5.52, respectively.

`Cc1nc(N2C[C@H](NC(=O)[C@@H]3CC[C@@H]4C[C@H]5C[C@H]5C[C@H](NC(=O)c5cc6cc(C(F)P(=O)(O)O)ccc6s5)C(=O)N43)[C@@H](F)C2)n[nH]1` (stereo partly drawn) [Example 366, (fluoro(2-(((3S,6S,7aS,8aR,9aR)-3-(((3S,4S)-4-fluoro-1-(5-methyl-1H-1,2,4-triazol-3-yl)pyrrolidin-3-yl)carbamoyl)-5-oxodecahydro-1H-cyclopropa[d]pyrrolo[1,2-a]azocin-6-yl)carbamoyl)benzo[b]thiophen-5-yl)methyl)phosphonic acid]: the pIC50 in test [1] is 6.00 to 7.00; in test [2], 4.52 to 5.52.

For `Cn1ccnc1N1C[C@H](NC(=O)[C@@H]2CC[C@@H]3C[C@H]4C[C@H]4C[C@H](NC(=O)c4cc5cc(C(F)P(=O)(O)O)ccc5s4)C(=O)N32)[C@@H](F)C1` (stereo partly drawn) [Example 367, (fluoro(2-(((3S,6S,7aS,8aR,9aR)-3-(((3S,4S)-4-fluoro-1-(1-methyl-1H-imidazol-2-yl)pyrrolidin-3-yl)carbamoyl)-5-oxodecahydro-1H-cyclopropa[d]pyrrolo[1,2-a]azocin-6-yl)carbamoyl)benzo[b]thiophen-5-yl)methyl)phosphonic acid], the results for the pIC50 in test [1] and in test [2] were more than 7.00 and 4.52 to 5.52, respectively.

Consider `O=C(N[C@H]1C[C@@H]2C[C@@H]2C[C@H]2CC[C@@H](C(=O)N3CC(Cc4ccccc4F)C3)N2C1=O)c1cc2cc(CP(=O)(O)O)ccc2s1` [Example 368, ((2-(((3S,6S,7aS,8aR,9aR)-3-(3-(2-fluorobenzyl)azetidine-1-carbonyl)-5-oxodecahydro-1H-cyclopropa[d]pyrrolo[1,2-a]azocin-6-yl)carbamoyl)benzo[b]thiophen-5-yl)methyl)phosphonic acid], for which the pIC50 was 5.00 to 6.00 in test [1] and 4.52 to 5.52 in test [2].

`O=C(N[C@H]1C[C@@H]2C[C@@H]2C[C@H]2CC[C@@H](C(=O)N3CC(Cc4ccc(F)cc4)C3)N2C1=O)c1cc2cc(CP(=O)(O)O)ccc2s1` [Example 369, ((2-(((3S,6S,7aS,8aR,9aR)-3-(3-(4-fluorobenzyl)azetidine-1-carbonyl)-5-oxodecahydro-1H-cyclopropa[d]pyrrolo[1,2-a]azocin-6-yl)carbamoyl)benzo[b]thiophen-5-yl)methyl)phosphonic acid]: the values for the pIC50 in test [1] and in test [2] were 6.00 to 7.00 and 4.52 to 5.52, respectively.

For `O=C(N[C@H]1C[C@@H]2C[C@@H]2C[C@H]2CC[C@@H](C(=O)N3CCOc4ccccc43)N2C1=O)c1cc2cc(C(F)P(=O)(O)O)ccc2s1` (stereo partly drawn) [Example 372, ((2-(((3S,6S,7aS,8aR,9aR)-3-(3,4-dihydro-2H-benzo[b][1,4]oxazine-4-carbonyl)-5-oxodecahydro-1H-cyclopropa[d]pyrrolo[1,2-a]azocin-6-yl)carbamoyl)benzo[b]thiophen-5-yl)fluoromethyl)phosphonic acid], the pIC50 in test [1] is 5.00 to 6.00; in test [2], 4.52 to 5.52.

For `O=C(N[C@H]1C[C@@H]2C[C@@H]2C[C@H]2CC[C@@H](C(=O)N3CCCOc4ccccc43)N2C1=O)c1cc2cc(C(F)P(=O)(O)O)ccc2s1` (stereo partly drawn) [Example 373, (fluoro(2-(((3S,6S,7aS,8aR,9aR)-5-oxo-3-(2,3,4,5-tetrahydrobenzo[b][1,4]oxazepine-5-carbonyl)decahydro-1H-cyclopropa[d]pyrrolo[1,2-a]azocin-6-yl)carbamoyl)benzo[b]thiophen-5-yl)methyl)phosphonic acid], the negative-log IC50 (pIC50) in test [1] is 5.00 to 6.00; in test [2], 4.52 to 5.52.

Take `O=C(N[C@H]1C[C@@H]2C[C@@H]2C[C@H]2CC[C@@H](C(=O)N3CC(c4cc(C(F)F)on4)C3)N2C1=O)c1cc2cc(C(F)P(=O)(O)O)ccc2s1` (stereo partly drawn) [Example 375, ((2-(((3S,6S,7aS,8aR,9aR)-3-(3-(5-(difluoromethyl)isoxazol-3-yl)azetidine-1-carbonyl)-5-oxodecahydro-1H-cyclopropa[d]pyrrolo[1,2-a]azocin-6-yl)carbamoyl)benzo[b]thiophen-5-yl)fluoromethyl)phosphonic acid]: the pIC50 was 6.00 to 7.00 in test [1] and 4.52 to 5.52 in test [2].

For the molecule `Cc1cnc(N2C[C@H](NC(=O)[C@@H]3CC[C@@H]4C[C@H]5C[C@H]5C[C@H](NC(=O)c5cc6cc(C(F)P(=O)(O)O)ccc6s5)C(=O)N43)[C@@H](F)C2)n1C` (stereo partly drawn) [Example 376, ((2-(((3S,6S,7aS,8aR,9aR)-3-(((3S,4S)-1-(1,5-dimethyl-1H-imidazol-2-yl)-4-fluoropyrrolidin-3-yl)carbamoyl)-5-oxodecahydro-1H-cyclopropa[d]pyrrolo[1,2-a]azocin-6-yl)carbamoyl)benzo[b]thiophen-5-yl)fluoromethyl)phosphonic acid], the negative-log IC50 (pIC50) in test [1] was more than 7.00; in test [2], 4.52 to 5.52.

For orientation: pIC50 means the IC50 on a negative log10 scale, so that one unit is a factor of ten.

For the origin of these results see patent US20250215030A1, “STAT MODULATORS AND USES THEREOF” (Recludix Pharma, Inc., priority 2022, published 2025).
